Experimental data as given in patent US7235577B1 (priority 2000, dated 2007).
pKd: −log10 of the molar value. Where two headings read alike, the source gives them in different places.

Columns and labels:
human IKCa1 channel = human IKCa1 channel (Homo sapiens, UniProt O15554); assay: cell-based
Procedure: COS-7 cells, maintained in Dulbecco's modified Eagle's medium (DMEM) containing 10% heat-inactivated fetal calf serum, 4 mM L-glutamine and 1 mM Na^+ pyruvate, were transiently transfected with hlKCa1.
Electrophysiological experiments were carried out in the whole-cell configuration of the patch-clamp technique using an EPC-9 amplifier (HEKA Elektronik, Lambrecht Germany) interfaced to a computer running acquisition and analysis software (Pulse and Pulsfit; HEKA Elektronik). Pipettes were pulled from soft glass capillaries, coated with Sylgard (Dow-Corning, Midland, Mich.), and fire polished to resistances of 2.0–4.5 MΩ measured in the bath. COS-7 cells were trypsinized and plated on glass coverslips 3 h before measurement. […] To prevent activation of the native chloride channels in COS-7 cells an aspartate Ringer solution was used as an external solution (160 mM Na^+ aspartate, 4.5 mM KCl, 2 mM CaCl2, 1 mM MgCl2, 5 mM HEPES, adjusted to pH 7.4 with NaOH, with an osmolarity of 290–310 mosM). 200 ms voltage ramps from −120 mV to 40 mV every 10 s were used. The holding potential in all experiments was −80 mV. Series resistance compensation was not employed. The reduction of slope conductance at −80 mV was used to determine the Kd-value by fitting the values to the Hill equation with a Hill coefficient of unity.

[1] = read-out: Kd for block of IKCa1, hIKCa1 in COS-7 cells, reduction of slope conductance at −80 mV, 1 μM free Ca++ in pipette
[2] = hIKCa1 in COS-7 cells, reduction of slope conductance at −80 mV, 1 μM free Ca++ in pipette

Chain of human IKCa1 channel (O15554 whole entry): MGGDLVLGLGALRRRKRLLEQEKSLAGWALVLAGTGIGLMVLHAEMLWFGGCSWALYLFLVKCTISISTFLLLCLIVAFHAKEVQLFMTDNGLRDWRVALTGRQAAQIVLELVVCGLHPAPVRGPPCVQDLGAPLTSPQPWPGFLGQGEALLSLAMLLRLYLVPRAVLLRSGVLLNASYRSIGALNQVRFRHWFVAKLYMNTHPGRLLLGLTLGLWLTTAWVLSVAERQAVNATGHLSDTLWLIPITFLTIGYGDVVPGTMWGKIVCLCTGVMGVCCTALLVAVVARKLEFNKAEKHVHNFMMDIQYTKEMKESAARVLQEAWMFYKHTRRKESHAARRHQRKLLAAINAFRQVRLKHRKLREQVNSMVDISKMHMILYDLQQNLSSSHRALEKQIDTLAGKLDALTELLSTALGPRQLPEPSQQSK

pKd (human IKCa1 channel) | melting point [°C] | SMILES | also measured
6.28 | 53 | OC(c1ccccc1)(c1ccccc1)c1cccc(Cl)c1 [Compound T2, (3-Chlorophenyl)diphenyl methanol] | 
6.15 | 120.5 | OC(c1ccccc1)(c1ccccc1)c1ccc(F)cc1 [Compound T12, (4-Fluorophenyl)diphenyl methanol] | 
4.55 | 243 | c1ccc(C(c2ccccc2)(c2ccccc2)n2cccc2)cc1 [Compound T10, 1-Trityl-1H-pyrrole] | 
4.49 | 198 | Clc1ccccc1C(NCCCNC(c1ccccc1)(c1ccccc1)c1ccccc1Cl)(c1ccccc1)c1ccccc1 [Compound T49, N,N-1,3-[(2-Chlorophenyl)diphenylmethyl]-amino propane] | 
 | 184 | Clc1ccccc1C(c1ccccc1)(c1ccccc1)n1cccc1 | 
5.82 | 129 | OC(c1ccccc1)(c1ccccc1)c1cccs1 [Compound T9, (2-Thienyl)diphenyl methanol] | 
 | 213 | c1ccc(C(Nc2nccs2)(c2ccccc2)c2ccccc2)cc1 | 
4.52 | 126 | c1ccc(C(c2ccccc2)(c2ccccc2)N2CCCC2)cc1 [Compound T7, 1-Tritylpyrrolidine] | 
6.26 | 82 | OC(c1ccccc1)(c1ccccc1)c1ccc(Cl)cc1 [Compound T1, (4-Chlorophenyl)diphenyl methanol] | 
5.82 | 185 | CC(=O)NC(c1ccccc1)(c1ccccc1)c1ccccc1C(F)(F)F [Compound T83, N-(2-Trifluoromethylphenyl)diphenylmethyl acetamide] | 
6.00 |  | c1ccc(C(c2ccccc2)(c2cccs2)n2ccnc2)cc1 [Compound T37, 1-[Diphenyl(2-thienyl)methyl]-1H-imidazole] | 
4.92 |  | Fc1ccccc1C(Nc1nccs1)(c1ccccc1)c1ccccc1 [Compound T78, N-[(2-Fluorophenyl)diphenylmethyl]-N-(1,3-thiazol-2yl)amine] | 
6.10 |  | OC(c1ccccc1)(c1ccc(F)cc1)c1cccs1 (stereo not drawn) [Compound T14, (4-Fluorophenyl)(2-thienyl)phenyl methanol] | 
5.60 | 202 | c1ccc(C(c2ccccc2)(c2ccccc2)n2cccn2)cc1 [Compound T11, 1-Trityl-1H-pyrazole] | 
 |  | NC(c1ccccc1)(c1ccccc1)c1ccccc1Cl [Compound T41, (2-chlorophenyl)diphenylmethyl amine] | pKd (human IKCa1 channel; [1]): 5.30
 |  | CCOC(=O)C(C(=O)OCC)C(c1ccccc1)(c1ccccc1)c1ccccc1Cl [Compound T77] | pKd (human IKCa1 channel; [1]): 6.10
 |  | COc1ccc(C(C#N)(c2ccc(OC)cc2)c2ccc(OC)cc2)cc1 [Compound T18] | pKd (human IKCa1 channel; [1]): 4.40
5.05 | 86 | OC(c1ccccc1)(c1cccs1)c1cccs1 [Compound T35, Di-(2-thienyl)phenyl methanol] | 
 |  | NC(c1ccccc1)(c1ccccc1)c1ccccc1C(F)(F)F [Compound T82, (2-Trifluoromethylphenyl)-diphenylmethyl amine] | pKd (human IKCa1 channel; [1]): 5.60
 |  | COc1ccc(C(c2ccc(OC)cc2)(c2ccc(OC)cc2)n2cccn2)cc1 [Compound T19, 1-[Tris(4-methoxyphenyl)methyl]-1H-pyrazole] | Kd for block of IKCa1 (human IKCa1 channel; [2]): No effect at 1 μM
4.70 |  | Clc1ccc(C(Nc2nccs2)(c2ccccc2)c2ccccc2)cc1 [Compound T64, N-[(4-Chlorophenyl)diphenylmethyl]-N-(1,3-thiazol-2yl)amine] | 
6.10 | 76 | N#CC(c1ccccc1)(c1ccccc1)c1ccc(F)cc1 [Compound T27, 2-(4-Fluorophenyl)2,2-diphenylacetonitrile] | 
 | 86 | OC(c1ccccc1)(c1ccc(Cl)cc1)c1ccc(Cl)cc1 [Compound T4, Bis-(4-chlorophenyl)phenyl methanol] | Kd for block of IKCa1 (human IKCa1 channel; [2]): No effect at 1 μM

pKd (human IKCa1 channel) | melting point [°C] | SMILES | also measured
4.82 | 228 | NC(=O)NC(c1ccccc1)(c1ccccc1)c1ccc(Cl)cc1 [Compound T29, N-[(4-Chlorophenyl)diphenylmethyl] urea] | 
 | 243 | NC(=O)NC(c1ccccc1)(c1ccccc1)c1ccccc1Cl | 
6.15 | 116 | OC(c1ccccc1)(c1ccccc1)c1ccccc1F [Compound T36, (2-Fluorophenyl)diphenyl methanol] | 
6.70 |  | Fc1ccc(C(c2ccccc2)(c2ccccc2)n2cccn2)cc1 [Compound T28, 1-[(4-Fluorophenyl)diphenylmethyl]-1H-pyrazole] | 
6.15 |  | OC(c1ccccc1)(c1ccccc1)c1ccccc1C(F)(F)F [Compound T54, Diphenyl(2-trifluoromethylphenyl) methanol] | 
5.00 |  | COc1ccc(C(O)(c2ccccc2)c2ccc(OC)cc2)cc1 [Compound T15, Bis-(4-methoxyphenyl)phenyl methanol] | 
4.82 |  | FC(F)(F)c1ccccc1C(Nc1ncccn1)(c1ccccc1)c1ccccc1 [Compound T73, N-Diphenyl[2-(trifluoromethyl)phenyl]-methyl-N-(2-pyrimidinyl)amine] | 
4.60 |  | FC(F)(F)c1ccn(C(c2ccccc2)(c2ccccc2)c2ccccc2C(F)(F)F)n1 [Compound T59, 1-{Diphenyl[2-(trifluoromethyl)-phenyl]methyl}-3-(trifluoromethyl)-1H-pyrazole] | 
4.60 |  | FC(F)(F)c1ccccc1C(Nc1nccs1)(c1ccccc1)c1ccccc1 [Compound T72, N-Diphenyl[2-(trifluoromethyl)phenyl]-methyl-N-(1,3-thiazol-2yl)amine] | 
5.96 |  | c1ccc(C(c2ccccc2)(c2cccs2)n2cccn2)cc1 [Compound T38, 1-[Diphenyl(2-thienyl)methyl]-1H-pyrazole] | 
7.05 |  | Clc1ccc(C(c2ccccc2)(c2ccccc2)n2cccn2)cc1 [Compound T13, 1[(4-Chlorophenyl)diphenylmethyl]-1H-pyrazole] | 
 | 201 | c1ccc(C(NCc2ccc(CNC(c3ccccc3)(c3ccccc3)c3ccccc3)cc2)(c2ccccc2)c2ccccc2)cc1 [Compound T23, 1,4-Ditritylaminomethyl benzene] | Kd for block of IKCa1 (human IKCa1 channel; [2]): No effect at 1 μM
5.96 |  | Cc1ccn(C(c2ccccc2)(c2ccccc2)c2ccccc2Cl)n1 [Compound T63, 1-[(2-Chlorophenyl)diphenylmethyl]-3-methyl-1H-pyrazole] | 
 |  | OC(c1ccccc1)(c1cccc(Cl)c1)c1cccc(Cl)c1 [Compound T5, Bis-(3-chlorophenyl)phenyl methanol] | Kd for block of IKCa1 (human IKCa1 channel; [2]): No effect at 1 μM
4.96 |  | Clc1ccc(C(Nc2ccncc2)(c2ccccc2)c2ccccc2)cc1 [Compound T70, N-[(4-Chlorophenyl)diphenylmethyl]-N-(4-pyridyl)amine] | 
4.52 | 228 | Clc1ccccc1C(NCCNC(c1ccccc1)(c1ccccc1)c1ccccc1Cl)(c1ccccc1)c1ccccc1 [Compound T48, N,N-1,2-[(2-Chlorophenyl)diphenylmethyl]-amino ethane] | 
6.00 | 225 | NC(=O)NC(c1ccccc1)(c1ccccc1)c1ccccc1F [Compound T45, N-[(2-Fluorophenyl)diphenylmethyl] urea] | 
 |  | c1ccc(C(NCCN(CCNC(c2ccccc2)(c2ccccc2)c2ccccc2)CCNC(c2ccccc2)(c2ccccc2)c2ccccc2)(c2ccccc2)c2ccccc2)cc1 [Compound T20] | Kd for block of IKCa1 (human IKCa1 channel; [2]): No effect at 1 μM
7.35 |  | Clc1ccccc1C(c1ccccc1)(c1ccccc1)n1cnnn1 [Compound T84, 1-[(2-Chlorophenyl)diphenylmethyl]-1H-1,2,3,4-tetrazole] | IKCa1 inhibition compared with clotrimazole (human IKCa1 channel; refers to TABLE 8): more potent inhibitors of IKCa1 channels than clotrimazole
5.10 | 222 | NC(=O)NC(c1ccccc1)(c1ccccc1)c1ccc(F)cc1 [Compound T31, N-[(4-Fluorophenyl)diphenylmethyl] urea] | 
5.10 | 238 | NC(=O)NC(c1ccccc1)(c1ccccc1)c1ccccc1 [Compound T24, N-trityl urea] | 
5.92 | 215 | CC(=O)NC(c1ccccc1)(c1ccccc1)c1ccccc1F [Compound T76, N-(2-Fluorophenyl)diphenylmethyl acetamide] | 
